Patent US20230295212A1 (ROME Therapeutics, Inc., priority 2022, published 2023)

Molecular target: T1, LINE1 reverse transcriptase (Homo sapiens, UniProt O00370)
T1 construct: expressed in transfected cells; host or cells: HeLa Tet-On 3G (Takara, cat no 631183)
Test: Stable artificial-intron Cis LINE1 reporter assay (HeLa Tet-On 3G, Firefly luciferase)
Assay type: cell-based
Conditions: HeLa L1 artificial-intron reporter cells, doxycycline 500 ng/mL, 72 h, class symbols
In short: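 HeLa Tet-On 3G clone stably carrying a bi-directional doxycycline-inducible artificial-intron LINE1 reporter, plated at 8,000 cells/well onto serially diluted compound. Expression induced with 500 ng/mL doxycycline (final); Firefly luciferase luminescence (Dual-Glo) read 72 h after plating as LINE1 activity.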

T1 sequence (O00370 whole entry, looked up): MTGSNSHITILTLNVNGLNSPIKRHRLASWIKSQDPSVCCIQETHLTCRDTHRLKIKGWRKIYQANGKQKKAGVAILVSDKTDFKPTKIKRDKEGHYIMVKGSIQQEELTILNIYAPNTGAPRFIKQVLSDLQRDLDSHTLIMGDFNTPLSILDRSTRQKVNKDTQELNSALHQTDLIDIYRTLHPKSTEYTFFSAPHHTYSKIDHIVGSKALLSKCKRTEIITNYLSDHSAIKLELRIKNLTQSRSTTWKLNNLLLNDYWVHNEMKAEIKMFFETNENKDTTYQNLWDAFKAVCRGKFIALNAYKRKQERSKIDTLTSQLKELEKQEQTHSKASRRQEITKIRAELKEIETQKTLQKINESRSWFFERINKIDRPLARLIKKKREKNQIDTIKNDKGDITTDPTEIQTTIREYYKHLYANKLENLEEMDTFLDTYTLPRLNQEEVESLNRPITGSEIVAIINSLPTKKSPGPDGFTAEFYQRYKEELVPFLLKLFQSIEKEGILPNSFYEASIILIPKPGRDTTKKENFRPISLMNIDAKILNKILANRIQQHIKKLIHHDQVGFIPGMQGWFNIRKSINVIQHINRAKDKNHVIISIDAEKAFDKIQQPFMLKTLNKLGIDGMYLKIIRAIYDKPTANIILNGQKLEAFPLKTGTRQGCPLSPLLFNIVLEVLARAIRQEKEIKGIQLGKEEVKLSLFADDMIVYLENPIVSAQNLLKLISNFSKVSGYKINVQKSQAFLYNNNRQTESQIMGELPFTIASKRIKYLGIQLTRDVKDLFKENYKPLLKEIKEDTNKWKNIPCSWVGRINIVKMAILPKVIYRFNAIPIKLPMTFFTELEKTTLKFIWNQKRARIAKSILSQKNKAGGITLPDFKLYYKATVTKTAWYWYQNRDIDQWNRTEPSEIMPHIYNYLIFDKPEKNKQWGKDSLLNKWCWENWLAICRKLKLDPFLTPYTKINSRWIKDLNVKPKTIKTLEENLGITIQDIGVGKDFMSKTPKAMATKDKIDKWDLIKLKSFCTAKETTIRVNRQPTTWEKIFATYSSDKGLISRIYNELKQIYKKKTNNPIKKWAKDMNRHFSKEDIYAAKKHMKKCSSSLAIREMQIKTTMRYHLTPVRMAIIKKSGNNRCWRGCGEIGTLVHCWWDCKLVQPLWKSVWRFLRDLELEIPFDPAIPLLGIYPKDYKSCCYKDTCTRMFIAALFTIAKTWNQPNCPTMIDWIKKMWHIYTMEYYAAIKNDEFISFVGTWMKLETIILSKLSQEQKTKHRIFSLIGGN

Compound | IC50 [nM]
Nc1nc(=O)n([C@@H]2O[C@@](CO)(CI)[C@@H](O)[C@@H]2F)cc1F [Compound 129, 4-amino-5-fluoro-1-((2R,3S,4R,5R)-3-fluoro-4-hydroxy-5-(hydroxymethyl)-5-(iodomethyl)tetrahydrofuran-2-yl)pyrimidin-2(1H)-one] | > 1000
Nc1nc(=O)n([C@@H]2O[C@](/C=C\Cl)(CO)[C@@H](O)[C@@H]2F)cc1F [Compound 132, 4-amino-1-[(2R,3S,4R,5R)-5-(2-chloroethenyl)-3-fluoro-4-hydroxy-5(Z)-(hydroxymethyl)oxolan-2-yl]-5-fluoropyrimidin-2-one] | > 1000
CSC[C@]1(CO)O[C@@H](n2cc(F)c(N)nc2=O)[C@@H](F)[C@@H]1O [Compound 135] | > 1000
Nc1nc(=O)n([C@@H]2O[C@@](CO)(CCl)[C@@H](O)[C@@H]2Cl)cc1F [Compound 137, 4-amino-1-[(2R,3S,4R,5R)-3-chloro-5-(chloromethyl)-4-hydroxy-5-(hydroxymethyl)oxolan-2-yl]-5-fluoropyrimidin-2-one] | 250 to 1000

The remaining lines, values ahead:

IC50 [nM] | Compound
≤ 50 | CC[C@]1(CO)O[C@@H](n2cnc3c(O)nc(N)nc32)C[C@@H]1O [Compound 115, 2-amino-9-((2R,4S,5R)-5-ethyl-4-hydroxy-5-(hydroxymethyl)tetrahydrofuran-2-yl)-1,9-dihydro-6H-purin-6-one]
100 to 250 | C#C[C@]1(CO)O[C@@H](n2cc(F)c(N)nc2=O)[C@@H](O)[C@@H]1O [Compound 116, 4-amino-1-((2R,3S,4S,5R)-5-ethynyl-3,4-dihydroxy-5-(hydroxymethyl)tetrahydrofuran-2-yl)-5-fluoropyrimidin-2(1H)-one]
50 to 100 | Nc1ccn([C@@H]2O[C@@](CO)(CCl)[C@@H](O)C2(F)F)c(=O)n1 [Compound 119, 4-amino-1-((2R,4R,5R)-5-(chloromethyl)-3,3-difluoro-4-hydroxy-5-(hydroxymethyl)tetrahydrofuran-2-yl)pyrimidin-2(1H)-one]
250 to 1000 | Nc1nc(=O)n([C@H]2C[C@H](O)[C@](CO)(C3CC3)O2)cc1F [Compound 120, 4-amino-1-[(2R,4S,5R)-5-cyclopropyl-4-hydroxy-5-(hydroxymethyl)oxolan-2-yl]-5-fluoropyrimidin-2-one]
100 to 250 | Nc1ccn([C@@H]2O[C@@](CO)(C3CC3)[C@@H](O)[C@@H]2F)c(=O)n1 [Compound 121, 4-amino-1-[(2R,3S,4R,5R)-5-cyclopropyl-3-fluoro-4-hydroxy-5-(hydroxymethyl)oxolan-2-yl] pyrimidin-2-one]
250 to 1000 | Nc1nc(=O)n([C@@H]2O[C@@](CO)(C3CC3)[C@@H](O)[C@@H]2F)cc1F [Compound 122, 4-amino-1-[(2R,3S,4R,5R)-5-cyclopropyl-3-fluoro-4-hydroxy-5-(hydroxymethyl)oxolan-2-yl]-5-fluoropyrimidin-2-one]
50 to 100 | Nc1nc(=O)n([C@@H]2O[C@](/C=C\F)(CO)[C@@H](O)[C@@H]2F)cc1F [Compound 123, 4-amino-5-fluoro-1-((2R,3S,4R,5R)-3-fluoro-5-((Z)-2-fluorovinyl)-4-hydroxy-5-(hydroxymethyl)tetrahydrofuran-2-yl)pyrimidin-2(1H)-one]
100 to 250 | Nc1nc(=O)n([C@@H]2O[C@](/C=C/Cl)(CO)[C@@H](O)[C@@H]2F)cc1F [Compound 131, 4-amino-1-[(2R,3S,4R,5R)-5(E)-(2-chloroethenyl)-3-fluoro-4-hydroxy-5-(hydroxymethyl)oxolan-2-yl]-5-fluoropyrimidin-2-one]

Same assay, conditions: HeLa L1 artificial-intron reporter cells, doxycycline 500 ng/mL, 72 h, numeric bounds

IC50 [nM] | Compound
> 30000 | NC(=O)[C@]1(CO)O[C@@H](n2cc(F)c(N)nc2=O)[C@@H](F)[C@@H]1O [Compound 138, (2R,3R,4S,5R)-5-(4-amino-5-fluoro-2-oxopyrimidin-1-yl)-4-fluoro-3-hydroxy-2-(hydroxymethyl)oxolane-2-carboxamide]
> 30000 | NC[C@]1(CO)O[C@@H](n2cc(F)c(N)nc2=O)[C@@H](F)[C@@H]1O [Compound 139, 4-amino-1-[(2R,3S,4R,5R)-5-(aminomethyl)-3-fluoro-4-hydroxy-5-(hydroxymethyl)oxolan-2-yl]-5-fluoropyrimidin-2-one]
